This note sets out measurements from patent US20230257383A1, “COMPOUND SERVING AS BTK INHIBITOR, PREPARATION METHOD THEREFOR, AND USE THEREOF” (CHENGDU HYPERWAY PHARMACEUTICALS CO., LTD., priority 2020, published 2023).

A word on the IC50: it is the point on the concentration scale where inhibition reaches its midpoint. A higher IC50 goes with weaker potency in that assay. Broadly, the AUC(0-inf) is the area under the concentration-time curve extrapolated to infinity. A lower AUC(0-inf) goes with low exposure. As a reminder, the Cmax is the peak of the concentration-time curve.

The test system of one data set is DOHH2 cell proliferation. Description: In vitro cell proliferation inhibitory activity test (CTG), DOHH2. The class given is cell-based. The note with it: Homo sapiens, DOHH-2. As for the experimental part:
Test Example 4: In Vitro Cell Proliferation Inhibitory Activity Test
Cells were cultured in 1640 medium, added with 10% inactivated FBS and 1% double antibiotics, and cultured at 37° C. and 5% CO2.
(1) Cells were routinely cultured until the cell density was 80%-90%, and the cells were harvested when their number reached the requirement.
(2) Cells were resuspended with corresponding culture medium, counted, and prepared into cell suspension at appropriate density.
(3) The cell suspension was added to a 96-well plate, 100 μL per well.
(4) Cells were cultured overnight in a 37° C., 5% CO2 incubator.
(1) The compounds to be tested were diluted with DMSO to make a stock solution with a final concentration of 20 mM for later use.
(2) The stock solution was diluted 10 times from 20 mM to 2 mM with DMSO, and then diluted 3 times from 2 mM to 9 concentrations.
(3) The blank control wells were cells plus 0.5% DMSO, as high-reading control wells.
(4) Wells with no cells and only medium were used as low-reading control wells.
4: Cell treatment with compound
(1) 24 h after the cells were plated, the compounds acted alone, and 99 μL of growth medium was added to each well, followed by 1 μL of the compound prepared in step 3. The plate was shaken gently to mix uniformly, and then placed in a 37° C., 5% CO2 incubator.
(2) The cell plate was placed in an incubator for 72 h.
5: Detection by CTG method
(1) The cell plate to be tested was placed at room temperature for 30 min, and 100 μL of medium was discarded from each well.
(2) 100 μL of CTG reagent (CelltiterGlo kit) was added to each well, placed on a fast shaker for 2 min, and stood at room temperature in the dark for 30 min.
(3) The chemiluminescent signal value was read with the Envision instrument.
IC50 was calculated by using GraphPad Prism 8 software. The IC50 (half inhibitory concentration) of the compound was derived using the following nonlinear fitting formula, and the results are shown in the following table:
Y=Bottom+(Top−Bottom)/(1+10^((Log IC50−X)×HillSlope))
X: log value of compound concentration, Y: inhibition rate (% inhibition)
Inhibition rate (% inhibition)=(reading of high-reading control well-reading of compound well)/(reading of high-reading control well-reading of low-reading control well)×100

In another data set the test system is TMD8 cell proliferation. Description: In vitro cell proliferation inhibitory activity test (CTG), TMD8. The format is cell-based. The note with it: Homo sapiens, TMD8, 72 h, TMD8 cells. The method, boiled down: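 Cells in 1640 medium with 10% FBS were plated overnight, then exposed for 72 h at 37 °C to 9 threefold dilutions from a 2 mM DMSO working stock, with 0.5% DMSO as the high control. CellTiter-Glo luminescence was read, and % inhibition was scaled to the DMSO and cell-free wells. IC50 came from a four-parameter nonlinear fit.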

A short description of data set [1]: Pharmacokinetic test, oral, SD rats. The class given is in vivo. The note with it: rat, plasma, oral 10 mg/kg. As for the experimental part:
Each test compound was administered orally (10 mg/kg, 3 rats in each group) to SD rats for pharmacokinetic study. […] Animals were fasted overnight before oral administration, and fed again after 4 h of administration. […] At each collection time point, 3 whole blood samples were collected at a the collection volume of about 0.2-0.3 mL. […] The collected plasma was stored at −20° C. before analysis. 20 μL of plasma sample was added into a 1.6 mL 96-well deep-well plate, added with 200 μL of working internal standard solution (the same volume of vehicle was added to the blank instead of internal standard), vortexed for 1 min, and centrifuged at 5800 rpm for 10 min. 100 μL of the supernatant was added to a 96-well injection plate for LC-MS/MS analysis.

For the compound `Nc1nccn2c(C3CCC(CO)OC3)nc(-c3ccc(C(F)(F)c4ccccc4)cc3)c12` (single isomer, unassigned) [Example 111-P1], the half-maximal inhibitory concentration (IC50) in the data set on DOHH2 cell proliferation turned out to be 0.116 µM.

Regarding `Nc1nccn2c(C34CCC(CO)(CC3)OC4)nc(-c3ccc(C(F)(F)c4ccccc4)cc3)c12` [Example 125], the results for the IC50 with DOHH2 cell proliferation and in the data set with TMD8 cell proliferation were 0.114 µM and 0.0924 µM, respectively.

For `Nc1nccn2c(C34CCC(CO)(CC3)OC4)nc(-c3ccc(C(F)(F)c4ccccc4F)cc3)c12` [Example 145], in data set [1], the area under the curve AUC(0-inf) amounted to 17200 ng·h/mL and the maximum concentration (Cmax) amounted to 1550 ng/mL. Moreover, the half-life in data set [1] (read-out: T½ (converted)) is 2.78 h.
